Reference: patent US20220298160A1, “COMPOUNDS USEFUL IN HIV THERAPY” (priority 2019, published 2022)
Read-outs that look alike come from different tables or passages of the source.

Tests used:
[1] = test system: HIV pseudotyped virus (NL4-3 provirus), WT; assay: PSV assay (pseudotyped virus assay), WT; conditions: U373 cells expressing human CD4 and CXCR4 or CCR5, luciferase signal after 3 days of culture
Description: A pseudotyped virus assay (PSV) was used to assess the potency of the HIV inhibitor. Replication defective virus was produced by co-transfection of a plasmid containing an NL4-3 provirus [containing a mutation in the envelope open reading frame (ORF) and a luciferase reporter gene replacing the nef ORF] and a CMV-promoter expression plasmid containing an ORF for various HIV gp160 envelope clones. The harvested virus was stored at −80 C in small aliquots and the titer of the virus measured to produce a robust signal for antiviral assays.
The PSV assay was performed by using U373 cells stably transformed to express human CD4, the primary receptor for HIV entry and either human CXCR4 or human CCR5 which are the co-receptors required for HIV entry as target cells for infection. […] This dose-range was applied to U373 cells and the pre-made pseudotyped virus added. The amount of luciferase signal produced after 3 days of culture was used to reflect the level of pseudotyped virus infection. An IC50, or the concentration of inhibitor required to reduce PSV infection by 50% from the infection containing no inhibitor was calculated. […] IC50 values were determined from a 10 point dose response curve using 3-4-fold serial dilution for each compound, which spans a concentration range >1000 fold.

[2] = test system: HIV pseudotyped virus (NL4-3 provirus), M184V; format: cell-based; conditions: PSV assay; U373 cells expressing human CD4 and CXCR4 or CCR5; luciferase signal after 3 days of culture
[3] = Human immunodeficiency virus 1, NL43, in Homo sapiens, 72 h, read-out: WT IC50 (μM), PSV assay

| SMILES | IC50 [1, 3] [µM] | IC50 [2] [µM] | IC50 ([1]; read-out: WT IC50, PSV assay) [µM] |
| --- | --- | --- | --- |
| C#C[C@]1(COC(=O)NC(C)C)O[C@@H](n2cnc3c(N)nc(F)nc32)C[C@@H]1O [Example 6, ((2R,3S,5R)-5-(6-amino-2-fluoro-9H-purin-9-yl)-2-ethynyl-3-hydroxytetrahydrofuran-2-yl)methyl isopropylcarbamate] | 0.56 | 1.08 | – |
| C#C[C@]1(CO)O[C@@H](n2cnc3c(N)nc(F)nc32)C[C@@H]1OC(=O)NC1CC1 [Example 24, (2R,3S,5R)-5-(6-amino-2-fluoro-9H-purin-9-yl)-2-ethynyl-2-(hydroxymethyl)tetrahydrofuran-3-yl cyclopropylcarbamate] | 1.48 | 3.74 | – |
| C#C[C@]1(COC(=O)N(CC)CC)O[C@@H](n2cnc3c(N)nc(F)nc32)C[C@@H]1O [Example 7, ((2R,3S,5R)-5-(6-amino-2-fluoro-9H-purin-9-yl)-2-ethynyl-3-hydroxytetrahydrofuran-2-yl)methyl diethylcarbamate] | 1.28 | 2.41 | – |
| C#C[C@]1(CO)O[C@@H](n2cnc3c(N)nc(F)nc32)C[C@@H]1OC(=O)NCC(=O)OCCCCC [Example 27, pentyl ((((2R,3S,5R)-5-(6-amino-2-fluoro-9H-purin-9-yl)-2-ethynyl-2-(hydroxymethyl)tetrahydrofuran-3-yl)oxy)carbonyl)glycinate] | > 25 | > 25 | – |
| C#C[C@]1(COC(=O)NC(C)(C)C)O[C@@H](n2cnc3c(N)nc(F)nc32)C[C@@H]1O [Example 8, ((2R,3S,5R)-5-(6-amino-2-fluoro-9H-purin-9-yl)-2-ethynyl-3-hydroxytetrahydrofuran-2-yl)methyl tert-butylcarbamate] | 0.142 | 1.13 | – |
| C#C[C@]1(CO)O[C@@H](n2cnc3c(NC(=O)OC4COC(=O)CCCCCCCCCCCC(=O)OC4)nc(F)nc32)C[C@@H]1O [Example 34, 6,18-dioxo-1,5-dioxacyclooctadecan-3-yl (9-((2R,4S,5R)-5-ethynyl-4-hydroxy-5-(hydroxymethyl)tetrahydrofuran-2-yl)-2-fluoro-9H-purin-6-yl)carbamate] | 0.0132 | 0.0678 | – |
| C#C[C@]1(CO)O[C@@H](n2cnc3c(N)nc(F)nc32)C[C@@H]1OC(=O)NCCCCC [Example 19, (2R,3S,5R)-5-(6-amino-2-fluoro-9H-purin-9-yl)-2-ethynyl-2-(hydroxymethyl)tetrahydrofuran-3-yl pentylcarbamate] | 1.77 | 9.44 | – |
| C#C[C@]1(CO)O[C@@H](n2cnc3c(N)nc(F)nc32)C[C@@H]1OC(=O)OC1COC(=O)CCCCCCCCCCCC(=O)OC1 [Example 31, (2R,3S,5R)-5-(6-amino-2-fluoro-9H-purin-9-yl)-2-ethynyl-2-(hydroxymethyl)tetrahydrofuran-3-yl (6,18-dioxo-1,5-dioxacyclooctadecan-3-yl) carbonate] | 0.0151 | 0.0478 | – |
| C#C[C@]1(CO)O[C@@H](n2cnc3c(N)nc(F)nc32)C[C@@H]1OC(=O)N1CCC(C)CC1 [Example 22, (2R,3S,5R)-5-(6-amino-2-fluoro-9H-purin-9-yl)-2-ethynyl-2-(hydroxymethyl)tetrahydrofuran-3-yl 4-methylpiperidine-1-carboxylate] | 11.7 | > 25 | – |
| C#C[C@]1(CO)O[C@@H](n2cnc3c(N)nc(F)nc32)C[C@@H]1OC(=O)NCCCCCCCCCCCC [Example 15, (2R,3S,5R)-5-(6-amino-2-fluoro-9H-purin-9-yl)-2-ethynyl-2-(hydroxymethyl)tetrahydrofuran-3-yl dodecylcarbamate] | > 15 | > 15 | – |
| C#C[C@]1(CO)O[C@@H](n2cnc3c(N)nc(F)nc32)C[C@@H]1OC(=O)NC(C)C [Example 20, (2R,3S,5R)-5-(6-amino-2-fluoro-9H-purin-9-yl)-2-ethynyl-2-(hydroxymethyl)tetrahydrofuran-3-yl isopropylcarbamate] | 10.5 | > 25 | – |
| C#C[C@]1(CO)O[C@@H](n2cnc3c(N)nc(F)nc32)C[C@@H]1OC(=O)OC(COC(=O)CCCCCCCC)COC(=O)CCCCCCCC [Example 30, 2-(((((2R,3S,5R)-5-(6-amino-2-fluoro-9H-purin-9-yl)-2-ethynyl-2-(hydroxymethyl)tetrahydrofuran-3-yl)oxy)carbonyl)oxy)propane-1,3-diyl dinonanoate] | 0.0077 | 0.0293 | – |
| C#C[C@]1(CO)O[C@@H](n2cnc3c(N)nc(F)nc32)C[C@@H]1OC(=O)OC(COC(=O)CCCC)COC(=O)CCCC [Example 29, 2-(((((2R,3S,5R)-5-(6-amino-2-fluoro-9H-purin-9-yl)-2-ethynyl-2-(hydroxymethyl)tetrahydrofuran-3-yl)oxy)carbonyl)oxy)propane-1,3-diyl dipentanoate] | 0.0077 | 0.0283 | – |
| C#C[C@]1(COC(=O)NCCCCCCCCCCCC)O[C@@H](n2cnc3c(N)nc(F)nc32)C[C@@H]1O [Example 3, ((2R,3S,5R)-5-(6-amino-2-fluoro-9H-purin-9-yl)-2-ethynyl-3-hydroxytetrahydrofuran-2-yl)methyl dodecylcarbamate] | 2.01 | 8.17 | – |
| C#C[C@]1(COC(=O)OCc2ccc(OC(=O)CCCCCCCCCCCCC)cc2)O[C@@H](n2cnc3c(N)nc(F)nc32)C[C@@H]1O [Example 13, 4-((((((2R,3S,5R)-5-(6-amino-2-fluoro-9H-purin-9-yl)-2-ethynyl-3-hydroxytetrahydrofuran-2-yl)methoxy)carbonyl)oxy)methyl)phenyl tetradecanoate] | 0.0072 | 0.0178 | – |
| C#C[C@]1(CO)O[C@@H](n2cnc3c(N)nc(F)nc32)C[C@@H]1OC(=O)NCCCCCCCCCCCCCCCCCC [Example 16, (2R,3S,5R)-5-(6-amino-2-fluoro-9H-purin-9-yl)-2-ethynyl-2-(hydroxymethyl)tetrahydrofuran-3-yl octadecylcarbamate] | 15 | 22.4 | – |
| C#C[C@]1(COC(=O)OC2COC(=O)CCCCCCCCCCCC(=O)OC2)O[C@@H](n2cnc3c(N)nc(F)nc32)C[C@@H]1O [Example 10, ((2R,3S,5R)-5-(6-amino-2-fluoro-9H-purin-9-yl)-2-ethynyl-3-hydroxytetrahydrofuran-2-yl)methyl (6,18-dioxo-1,5-dioxacyclooctadecan-3-yl) carbonate] | 0.0097 | 0.0313 | – |
| C#C[C@]1(CO)O[C@@H](n2cnc3c(NC(=O)OC(COC(=O)CCCCCCCC)COC(=O)CCCCCCCC)nc(F)nc32)C[C@@H]1O [Example 33, 2-(((9-((2R,4S,5R)-5-ethynyl-4-hydroxy-5-(hydroxymethyl)tetrahydrofuran-2-yl)-2-fluoro-9H-purin-6-yl)carbamoyl)oxy)propane-1,3-diyl dinonanoate] | 0.0054 | 0.0243 | – |
| C#C[C@]1(CO)O[C@@H](n2cnc3c(N)nc(F)nc32)C[C@@H]1OC(=O)NC(C)(C)C [Example 23, (2R,3S,5R)-5-(6-amino-2-fluoro-9H-purin-9-yl)-2-ethynyl-2-(hydroxymethyl)tetrahydrofuran-3-yl tert-butylcarbamate] | > 25 | > 25 | – |
| C#C[C@]1(CO)O[C@@H](n2cnc3c(NC(=O)OC(COCCCCC)COC(=O)CCCC)nc(F)nc32)C[C@@H]1O (single isomer, unassigned) [Example 37] | 0.0095 | 0.0324 | – |
| C#C[C@]1(CO)O[C@@H](n2cnc3c(N)nc(F)nc32)C[C@@H]1OC(=O)OCc1ccc(OC(=O)CCCCCCCCCCCCC)cc1 [Example 12, 4-((((((2R,3S,5R)-5-(6-amino-2-fluoro-9H-purin-9-yl)-2-ethynyl-2-(hydroxymethyl)tetrahydrofuran-3-yl)oxy)carbonyl)oxy)methyl)phenyl tetradecanoate] | 0.017 | 0.0663 | – |
| C#C[C@]1(CO)O[C@@H](n2cnc3c(NC(=O)OC(COCCCCCCCCC)COC(=O)CCCCCCCC)nc(F)nc32)C[C@@H]1O (single isomer, unassigned) [Example 35] | 0.0112 | 0.0331 | – |
| C#C[C@]1(CO)O[C@@H](n2cnc3c(N)nc(F)nc32)C[C@@H]1OC(=O)NCC(=O)OCC [Example 25, ethyl ((((2R,3S,5R)-5-(6-amino-2-fluoro-9H-purin-9-yl)-2-ethynyl-2-(hydroxymethyl)tetrahydrofuran-3-yl)oxy)carbonyl)glycinate] | 1.18 | 1.26 | – |
| C#C[C@]1(CO)O[C@@H](n2cnc3c(N)nc(F)nc32)C[C@@H]1OC(=O)NCC(=O)OC(C)(C)C [Example 26, tert-butyl ((((2R,3S,5R)-5-(6-amino-2-fluoro-9H-purin-9-yl)-2-ethynyl-2-(hydroxymethyl)tetrahydrofuran-3-yl)oxy)carbonyl)glycinate] | 16.1 | 17.3 | – |
| C#C[C@]1(CO)O[C@@H](n2cnc3c(NC(=O)OC(COCCCCCCCCC)COC(=O)CCCCCCCC)nc(F)nc32)C[C@@H]1O (single isomer, unassigned) [Example 36] | – | 0.0229 | 0.0085 |
| C#C[C@]1(COC(=O)NCCCCC)O[C@@H](n2cnc3c(N)nc(F)nc32)C[C@@H]1O [Example 4, ((2R,3S,5R)-5-(6-amino-2-fluoro-9H-purin-9-yl)-2-ethynyl-3-hydroxytetrahydrofuran-2-yl)methyl pentylcarbamate] | 2.66 | > 25 | – |
| C#C[C@]1(CO)O[C@@H](n2cnc3c(N)nc(F)nc32)C[C@@H]1OC(=O)NCCCCCCCC [Example 17, (2R,3S,5R)-5-(6-amino-2-fluoro-9H-purin-9-yl)-2-ethynyl-2-(hydroxymethyl)tetrahydrofuran-3-yl octylcarbamate] | > 15 | > 15 | – |
| C#C[C@]1(COC(=O)NCCCCCCCC)O[C@@H](n2cnc3c(N)nc(F)nc32)C[C@@H]1O [Example 2, ((2R,3S,5R)-5-(6-amino-2-fluoro-9H-purin-9-yl)-2-ethynyl-3-hydroxytetrahydrofuran-2-yl)methyl octylcarbamate] | > 25 | > 25 | – |
